Source: patent US20200148646A1, “6-S[…] 7-S[…] ANALOGS AND THE USE THEREOF” (Purdue Pharma, L.P., priority 2013, published 2020)

Biological target: μ-opioid receptor (Homo sapiens, UniProt P35372)
Assay: μ-opioid receptor [35S]GTPγS functional assay, HEK-293 or CHO cells
Assay type: biochemical
Conditions: for Emax: HEK-293 or CHO cells, relative to DAMGO
Method: [^35S]GTPγS functional assays were conducted using freshly thawed μ-receptor membranes prepared in-house from a cell line expressing recombinant opioid receptor in a HEK-293, CHO or U-2 OS cell background, or purchased from a commercial source (Perkin Elmer, Shelton, Conn.; or DiscovRx, Fremont, Calif.). Assay reactions were prepared by sequentially adding the following reagents to binding buffer (100 mM NaCl, 10 mM MgCl2, 20 mM HEPES, pH 7.4) on ice (final concentrations indicated): membrane protein (0.026 mg/mL), saponin ([…]), GDP ([…]) and [^35S]GTPγS (0.20 nM; Perkin Elmer, Shelton, Conn.). The prepared membrane solution (190 l/well) was transferred to 96-shallow well polypropylene plates containing 10 μl of 20× concentrated stock solutions of the agonist [D-Ala^2, N-methyl-Phe^4 Gly-ol^5]-enkephalin (DAMGO) prepared in dimethyl sulfoxide (DMSO). Plates were incubated for 30 min at about 25° C. with shaking. Reactions were terminated by rapid filtration onto 96-well Unifilter GF/B filter plates (Perkin Elmer, Shelton, Conn.) using a 96-well tissue harvester (Perkin Elmer, Shelton, Conn.) followed by three filtration washes with 200 μl of ice-cold wash buffer (10 mM NaH2PO4, 10 mM Na2HPO4, pH 7.4). Filter plates were subsequently dried at 50° C. for 2-3 hr. BetaScint scintillation cocktail (Perkin Elmer, Shelton, Conn.) was added (50 μl/well) and plates were counted using a Packard Top-Count for 1 min/well. Data were analyzed using the sigmoidal dose-response curve fitting functions in GraphPad PRISM v. 3.0, or an in-house function for non-linear, sigmoidal dose-response curve-fitting.
μ GTP EC50 is the concentration of a compound providing 50% of the maximal response for the compound at a μ-opioid receptor.
μ GTP Emax (%) is the maximal effect elicited by a compound relative to the effect elicited by DAMGO, a standard agonist. Generally, the μ GTP Emax (%) value measures the efficacy of a compound to treat or prevent pain or other Conditions.
In TABLE 2, activity response of certain Compounds of the Invention at the μ- and κ-opioid receptors using HEK-293 or CHO cells was determined as described above for functional assays.

μ-opioid receptor, sequence (P35372 whole entry, species assumed): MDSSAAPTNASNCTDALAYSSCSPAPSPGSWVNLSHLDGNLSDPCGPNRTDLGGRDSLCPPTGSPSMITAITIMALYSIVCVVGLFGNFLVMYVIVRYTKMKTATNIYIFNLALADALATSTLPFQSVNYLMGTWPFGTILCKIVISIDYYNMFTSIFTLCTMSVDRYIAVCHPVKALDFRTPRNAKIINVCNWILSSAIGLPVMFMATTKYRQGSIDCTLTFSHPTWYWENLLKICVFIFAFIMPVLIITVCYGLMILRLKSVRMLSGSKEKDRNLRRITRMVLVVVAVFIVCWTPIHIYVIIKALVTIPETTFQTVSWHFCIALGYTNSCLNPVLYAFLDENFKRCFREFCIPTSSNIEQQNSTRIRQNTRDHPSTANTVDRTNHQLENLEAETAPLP

Compound	EC50 [µM]	Emax [%]
CCN[C@H]1C[C@@]2(O)[C@H]3Cc4ccc(O)cc4[C@@]2(CCN3C)C[C@H]1O [Compound 113, (4bR,6R,7S,8aS,9R)-7-(ethylamino)-11-methyl-5,6,7,8,9,10-hexahydro-8aH-9,4b-(epiminoethano)phenanthrene-3,6,8a-triol]	> 20	3.62 ± 3.99
CCN[C@H]1C[C@@]2(O)[C@H]3Cc4ccc(O)cc4[C@@]2(CCN3C)C[C@@H]1O [Compound 114, (4bR,6S,7S,8aS,9R)-7-(ethylamino)-11-methyl-5,6,7,8,9,10-hexahydro-8aH-9,4b-(epiminoethano)phenanthrene-3,6,8a-triol]	> 20	9.47 ± 0.74
CC(C)CCCC(=O)N[C@H]1C[C@@]2(O)[C@H]3Cc4ccc(O)cc4[C@@]2(CCN3CC2CC2)C[C@@H]1O [Compound 115, N-((4bR,6S,7S,8aS,9R)-11-(cyclopropylmethyl)-3,6,8a-trihydroxy-6,7,8,8a,9,10-hexahydro-5H-9,4b-(epiminoethano)phenanthren-7-yl)-5-methylhexanamide]	> 20	-1.04
CN[C@H]1C[C@@]2(O)[C@H]3Cc4ccc(O)cc4[C@@]2(CCN3C)C[C@H]1O [Compound 116, (4bR,6R,7S,8aS,9R)-11-methyl-7-(methylamino)-5,6,7,8,9,10-hexahydro-8aH-9,4b-(epiminoethano)phenanthrene-3,6,8a-triol]	13.8 ± 0.6	28.9 ± 1.26
CC(C)CCCC(=O)O[C@@H]1C[C@]23CCN(CC4CC4)[C@H](Cc4ccc(O)cc42)[C@]3(O)C[C@@H]1N [Compound 117, (4bR,6R,7S,8aS,9R)-7-amino-11-(cyclopropylmethyl)-3,8a-dihydroxy-6,7,8,8a,9,10-hexahydro-5H-9,4b-(epiminoethano)phenanthren-6-yl 5-methylhexanoate]	0.023 ± 0.00359	14.1 ± 1.2
COc1ccc2c(c1)[C@]13CCN(C)[C@H](C2)[C@H]1[C@H](O)C[C@H](OCCO)C3 [Compound 118, (4bS,6R,8R,8aS,9R)-6-(2-hydroxyethoxy)-3-methoxy-11-methyl-6,7,8,8a,9,10-hexahydro-5H-9,4b-(epiminoethano)phenanthren-8-ol]	> 20	31.8 ± 5.76
COc1ccc2c(c1)[C@]13CCN(C)[C@H](C2)[C@H]1[C@H](O)C[C@@H](OCCO)C3 [Compound 119, (4bS,6S,8R,8aS,9R)-6-(2-hydroxyethoxy)-3-methoxy-11-methyl-6,7,8,8a,9,10-hexahydro-5H-9,4b-(epiminoethano)phenanthren-8-ol]	> 20	24.2 ± 3.04
CN1CC[C@]23C[C@@H](OCCO)C[C@@H](O)[C@@H]2[C@H]1Cc1ccc(O)cc13 [Compound 120, (4bS,6R,8R,8aS,9R)-6-(2-hydroxyethoxy)-11-methyl-6,7,8,8a,9,10-hexahydro-5H-9,4b-(epiminoethano)phenanthrene-3,8-diol]	0.436 ± 0.0347	36.3 ± 1.43
CN1CC[C@]23C[C@H](OCCO)C[C@@H](O)[C@@H]2[C@H]1Cc1ccc(O)cc13 [Compound 121, (4bS,6S,8R,8aS,9R)-6-(2-hydroxyethoxy)-11-methyl-6,7,8,8a,9,10-hexahydro-5H-9,4b-(epiminoethano)phenanthrene-3,8-diol]	1.96 ± 0.876	16.6 ± 1.97
